Experimental data taken from patent publication US8389534B2, “Pyrimidine non-classical cannabinoid compounds and related methods of use” (The University of Tennessee Research Foundation, priority 2008, dated 2013).

Columns and labels:
[1] = system: glioblastoma brain cancer cell line LN-229; test: Cytotoxicity assay (CCK8 viability); assay type: cell-based; conditions: Homo sapiens, cytotoxicity against LN-229 cells, 18 hours incubation
Protocol: Cytoxocity assay: Cells were seeded on a 96 well polystyrene plate in full serum media at a density of 75,000 cells per milliliter, 100 μL per well. Plates were incubated at 37° C. and 5% CO2 for 24 hours to allow cell attachment. Drug solutions were prepared in DMSO at 100× concentration and mixed 1:100 in 1% FBS media to yield the desired concentration. Drug-media mixtures were vortexed immediately prior to administration to cells. Full serum media was removed and replaced with drug-media mixtures and incubated for 18 hours. 10 μL of Cell Counting Kit 8 (CCK8, Dojindo# CK04-11) was added to each well to colormetrically assess viability. After 2-4 hours of incubation with the CCK8 dye, absorbance was read at 450 nm by a BioTek Synergy 2 plate reader.
The cytotoxicity of selected compounds against the glioblastoma brain cancer cell line LN-229 is depicted in Table 1.

Row | Compound | melting point [°C] | EC50 [1] [µM]
1 | Oc1nc(Cc2ccccc2)nc(O)c1-c1ccccc1 | 336.6 | –
2 | CC(C)(c1nc(O)c(-c2cc(Cl)cc(Cl)c2)c(O)n1)C1CCCCC1 [Compound 8g, 2-(2-Cyclohexylpropan-2-yl)-5-(3,5-dichlorophenyl)pyrimidine-4,6-diol] | – | 23.5
3 | CC(C)(c1ccccc1)c1nc(O)c(-c2cc(Cl)cc(Cl)c2)c(O)n1 [Compound 8h, 5-(3,5-Dichlorophenyl)-2-(2-phenylpropan-2-yl)pyrimidine-4,6-diol] | – | 51.8
4 | CCCCCCC(C)(C)c1nc(O)c(-c2cccc(C)c2)c(O)n1 [Compound 8j, 2-(2-Methyloctan-2-yl)-5-m-tolylpyrimidine-4,6-diol] | – | 55.4
